Read-outs that look alike come from different tables or passages of the source.
Legend:
[1] = molecular target: Tyk2 kinase domain (DH1) (Homo sapiens (Human), UniProt P29597); test: Tyk2 Radioactive Kinase Assay; format: biochemical; conditions: read-out: Tyk2 JH1% Inhibition @ 10 μM
Outline: (§1)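 Compounds were tested at a single concentration of 10 μM in a radiometric kinase format against each isolated kinase domain. Activity is reported as percent inhibition at that concentration.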

[2] = molecular target: JAK2 kinase domain (JH1) (Homo sapiens (Human), UniProt O60674); test: JAK2 Radioactive Kinase Assay; format: biochemical; conditions: read-out: JAK2 JH1% Inhibition @ 10 μM
Chain of JAK2 kinase domain (JH1) (O60674 849-1124): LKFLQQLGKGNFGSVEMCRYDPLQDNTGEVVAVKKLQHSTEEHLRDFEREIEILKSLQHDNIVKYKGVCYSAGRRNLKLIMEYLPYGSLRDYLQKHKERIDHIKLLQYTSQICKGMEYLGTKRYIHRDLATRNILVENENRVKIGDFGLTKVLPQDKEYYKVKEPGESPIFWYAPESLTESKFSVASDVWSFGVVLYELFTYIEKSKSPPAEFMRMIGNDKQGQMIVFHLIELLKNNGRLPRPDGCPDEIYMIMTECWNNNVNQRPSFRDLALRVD
Outline: as §1

[3] = molecular target: Tyk2/JAK2 (heterodimeric complex) (Homo sapiens (Human), UniProt P29597); test: IL-12 Induced pSTAT4 in Human PBMC; format: cell-based; conditions: 1.7 ng/mL IL-12
Chain of Tyk2/JAK2 (heterodimeric complex) (P29597 whole entry, other chains not shown): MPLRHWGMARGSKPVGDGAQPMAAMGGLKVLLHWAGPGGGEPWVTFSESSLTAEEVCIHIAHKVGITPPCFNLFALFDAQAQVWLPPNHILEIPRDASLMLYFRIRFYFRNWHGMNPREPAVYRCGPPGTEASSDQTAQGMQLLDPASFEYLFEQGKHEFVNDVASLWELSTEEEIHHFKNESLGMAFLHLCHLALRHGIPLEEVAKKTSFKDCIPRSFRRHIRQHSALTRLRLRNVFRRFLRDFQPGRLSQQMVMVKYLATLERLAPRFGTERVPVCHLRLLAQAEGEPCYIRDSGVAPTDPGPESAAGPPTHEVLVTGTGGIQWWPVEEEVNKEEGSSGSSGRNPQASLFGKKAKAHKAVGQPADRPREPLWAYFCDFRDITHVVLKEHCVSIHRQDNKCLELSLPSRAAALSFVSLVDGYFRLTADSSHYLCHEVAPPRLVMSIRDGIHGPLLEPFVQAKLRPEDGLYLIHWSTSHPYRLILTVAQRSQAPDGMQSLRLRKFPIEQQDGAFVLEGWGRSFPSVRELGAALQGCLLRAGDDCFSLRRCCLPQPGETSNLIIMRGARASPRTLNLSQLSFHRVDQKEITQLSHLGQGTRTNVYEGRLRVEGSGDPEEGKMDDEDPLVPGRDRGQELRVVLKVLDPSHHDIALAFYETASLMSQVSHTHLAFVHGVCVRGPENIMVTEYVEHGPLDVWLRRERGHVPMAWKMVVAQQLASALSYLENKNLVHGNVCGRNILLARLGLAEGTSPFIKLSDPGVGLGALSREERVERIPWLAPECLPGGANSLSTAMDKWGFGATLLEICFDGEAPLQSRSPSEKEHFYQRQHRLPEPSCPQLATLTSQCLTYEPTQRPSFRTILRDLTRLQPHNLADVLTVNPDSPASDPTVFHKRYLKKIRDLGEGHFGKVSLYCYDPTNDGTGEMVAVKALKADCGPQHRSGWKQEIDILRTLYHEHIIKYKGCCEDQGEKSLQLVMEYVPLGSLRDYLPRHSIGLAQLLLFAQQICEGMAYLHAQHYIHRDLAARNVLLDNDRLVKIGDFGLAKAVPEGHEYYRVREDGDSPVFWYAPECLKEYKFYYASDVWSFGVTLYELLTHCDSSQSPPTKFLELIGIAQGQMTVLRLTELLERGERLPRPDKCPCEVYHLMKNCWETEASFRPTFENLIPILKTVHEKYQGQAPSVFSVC
From the text: The IL-12 Induced pSTAT4 assay evaluates the inhibition of IL-12 induced STAT4 phophorylation mediated by Tyk2/JAK2 (heterodimeric complex).

[4] = molecular target: JAK2/JAK2 homdimeric complex (Homo sapiens (Human), UniProt O60674); test: GM-CSF Induced pSTAT5 in Human PBMC; format: cell-based; conditions: GM-CSF 5 ng/mL for 20 minutes, pSTAT5 by MSD, read-out: PBMC_GMCSF_pSTAT5 IC50
Chain of JAK2/JAK2 homdimeric complex (O60674 whole entry, the tested form may be a part): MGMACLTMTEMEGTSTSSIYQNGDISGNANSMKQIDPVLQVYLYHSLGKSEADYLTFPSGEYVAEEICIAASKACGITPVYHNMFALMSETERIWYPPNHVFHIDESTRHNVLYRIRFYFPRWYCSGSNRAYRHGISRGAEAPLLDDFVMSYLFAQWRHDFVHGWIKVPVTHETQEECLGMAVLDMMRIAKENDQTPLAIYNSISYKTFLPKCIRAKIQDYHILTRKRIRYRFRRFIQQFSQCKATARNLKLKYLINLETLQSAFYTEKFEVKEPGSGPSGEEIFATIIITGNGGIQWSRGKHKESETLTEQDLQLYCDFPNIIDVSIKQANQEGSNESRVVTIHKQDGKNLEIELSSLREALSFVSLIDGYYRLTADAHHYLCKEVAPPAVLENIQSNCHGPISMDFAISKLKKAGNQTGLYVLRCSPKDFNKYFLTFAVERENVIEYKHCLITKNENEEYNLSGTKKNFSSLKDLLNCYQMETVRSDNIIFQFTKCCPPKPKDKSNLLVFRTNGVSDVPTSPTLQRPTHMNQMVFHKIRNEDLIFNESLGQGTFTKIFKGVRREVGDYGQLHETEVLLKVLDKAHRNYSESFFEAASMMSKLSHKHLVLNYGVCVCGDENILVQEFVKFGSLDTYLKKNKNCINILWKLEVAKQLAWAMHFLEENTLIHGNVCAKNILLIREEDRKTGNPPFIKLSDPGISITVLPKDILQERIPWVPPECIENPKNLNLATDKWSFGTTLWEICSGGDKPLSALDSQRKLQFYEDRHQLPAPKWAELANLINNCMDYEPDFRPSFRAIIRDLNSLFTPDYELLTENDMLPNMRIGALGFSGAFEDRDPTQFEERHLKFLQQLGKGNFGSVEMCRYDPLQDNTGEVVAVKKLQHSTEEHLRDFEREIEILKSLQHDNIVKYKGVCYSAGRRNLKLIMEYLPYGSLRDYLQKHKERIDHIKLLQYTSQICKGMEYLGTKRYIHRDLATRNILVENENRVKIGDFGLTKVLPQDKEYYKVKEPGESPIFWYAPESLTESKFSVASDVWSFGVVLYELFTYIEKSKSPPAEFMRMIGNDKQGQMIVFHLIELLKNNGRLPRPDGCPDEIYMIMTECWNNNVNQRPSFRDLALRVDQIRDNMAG
Chain of JAK2/JAK2 homdimeric complex (P32927 17-897 partner): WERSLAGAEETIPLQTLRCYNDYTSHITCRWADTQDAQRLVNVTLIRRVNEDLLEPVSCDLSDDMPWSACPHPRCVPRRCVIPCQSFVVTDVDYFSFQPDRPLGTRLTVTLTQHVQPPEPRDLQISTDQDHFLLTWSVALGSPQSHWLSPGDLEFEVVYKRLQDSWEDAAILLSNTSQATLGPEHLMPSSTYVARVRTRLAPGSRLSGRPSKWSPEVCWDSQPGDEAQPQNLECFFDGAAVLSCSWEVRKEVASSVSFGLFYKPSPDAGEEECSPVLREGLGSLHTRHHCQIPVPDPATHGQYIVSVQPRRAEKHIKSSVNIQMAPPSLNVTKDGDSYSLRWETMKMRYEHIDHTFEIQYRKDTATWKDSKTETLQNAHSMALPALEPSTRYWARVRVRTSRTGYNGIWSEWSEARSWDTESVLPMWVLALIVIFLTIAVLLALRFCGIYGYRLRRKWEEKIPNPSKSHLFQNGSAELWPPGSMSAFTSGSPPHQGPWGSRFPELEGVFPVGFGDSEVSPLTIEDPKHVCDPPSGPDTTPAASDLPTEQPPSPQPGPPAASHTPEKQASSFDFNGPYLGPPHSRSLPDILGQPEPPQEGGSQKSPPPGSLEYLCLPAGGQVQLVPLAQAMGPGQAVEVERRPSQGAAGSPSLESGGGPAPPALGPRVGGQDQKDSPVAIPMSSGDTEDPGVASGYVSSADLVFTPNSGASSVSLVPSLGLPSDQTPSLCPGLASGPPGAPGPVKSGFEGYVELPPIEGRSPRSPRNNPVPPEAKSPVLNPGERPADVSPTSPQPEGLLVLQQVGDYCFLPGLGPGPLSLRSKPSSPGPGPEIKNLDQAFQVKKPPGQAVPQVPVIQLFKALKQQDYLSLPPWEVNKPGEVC

[5] = molecular target: human TYK2 (JH2domain-pseudokinase) (Homo sapiens (Human), UniProt P29597); test: TYK2 JH2 Domain Binding Assay (KINOMEscan)
Chain of human TYK2 (JH2domain-pseudokinase) (P29597 556-888): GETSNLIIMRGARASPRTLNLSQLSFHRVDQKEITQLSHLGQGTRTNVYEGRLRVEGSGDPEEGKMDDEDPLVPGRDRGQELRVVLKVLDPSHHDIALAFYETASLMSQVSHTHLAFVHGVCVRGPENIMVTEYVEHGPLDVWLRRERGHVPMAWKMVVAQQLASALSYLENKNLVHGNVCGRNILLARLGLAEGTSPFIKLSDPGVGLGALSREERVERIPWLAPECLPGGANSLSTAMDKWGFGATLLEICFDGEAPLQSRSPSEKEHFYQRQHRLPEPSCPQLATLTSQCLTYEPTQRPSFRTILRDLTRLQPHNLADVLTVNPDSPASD
Outline: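 Kds, run in duplicate, came from Hill fits (slope fixed at −1) of an 11-point 3-fold dilution series starting at 30,000 nM. Bead-retained TYK2 JH2 (aa G556–D888)–NFkB DBD fusion, DNA-tagged and expressed in HEK293 cells, was read by qPCR after 1 h room-temperature binding in 0.9% DMSO.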

Chain of Tyk2 kinase domain (DH1) (P29597 897-1176): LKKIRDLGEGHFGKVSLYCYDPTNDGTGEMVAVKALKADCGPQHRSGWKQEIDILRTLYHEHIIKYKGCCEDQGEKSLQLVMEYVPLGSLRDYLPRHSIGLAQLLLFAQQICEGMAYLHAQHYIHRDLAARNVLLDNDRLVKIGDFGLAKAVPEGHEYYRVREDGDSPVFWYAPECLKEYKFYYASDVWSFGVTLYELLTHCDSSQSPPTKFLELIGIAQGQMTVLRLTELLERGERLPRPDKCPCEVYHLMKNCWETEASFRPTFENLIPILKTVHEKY

| Structure (SMILES) | inhibition at 10 µM ([1]; compound at 10 μM, ATP 10 μM) | inhibition at 10 µM ([2]; compound at 10 μM, ATP 10 μM) | IC50 [3] | IC50 [4] | Kd [5] | inhibition at 10 µM ([1]; 10 μM compound, 10 μM ATP) | inhibition at 10 µM ([2]; 10 μM compound, 10 μM ATP) |
| --- | --- | --- | --- | --- | --- | --- | --- |
| CNc1cc(Nc2cccnc2OC2CC2)nc2c(C(=O)NC3CCC3)cnn12 [I-216] | < 50% | < 50% | < 0.1 µM | > 12.5 µM | < 0.0002 µM | – | – |
| CNc1cc(Nc2cccc3ocnc23)nc2c(C(=O)N[C@H]3C[C@H]3F)cnn12 [I-592] | < 50% | < 50% | < 0.1 µM | > 12.5 µM | < 0.0002 µM | – | – |
| CNc1cc(Nc2cc(Cl)cn(-c3ccn(C)n3)c2=O)nc2c(C(=O)N[C@H]3C[C@H]3F)cnn12 [I-309] | < 50% | < 50% | < 0.1 µM | > 12.5 µM | < 0.0002 µM | – | – |
| CNc1cc(Nc2cccc([C@@H]3CCCOC3)n2)nc2c(C(=O)N[C@H]3C[C@H]3F)cnn12 [I-562] | < 50% | 50 to 70% | < 0.1 µM | > 50 µM | < 0.0002 µM | – | – |
| CNc1cc(Nc2cccn(C3CCCCC3)c2=O)nc2c(C(=O)N[C@H]3C[C@H]3F)cnn12 [I-305] | < 50% | < 50% | < 0.1 µM | > 12.5 µM | < 0.0002 µM | – | – |
| CNc1cc(Nc2cccn(-c3cnn(CC4CCOCC4)c3)c2=O)nc2c(C(=O)NC3CC3)cnn12 [I-406] | < 50% | < 50% | 0.1 to 0.5 µM | > 12.5 µM | < 0.0002 µM | – | – |
| CNc1cc(Nc2cccnc2OC)nc2c(C(=O)N[C@@H]3CC[C@H]3O)cnn12 [I-396] | < 50% | < 50% | < 0.1 µM | > 50 µM | < 0.0002 µM | – | – |
| CNc1cc(Nc2cccnc2OCCOC)nc2c(C(=O)N[C@H]3C[C@H]3F)cnn12 [I-220] | < 50% | < 50% | < 0.1 µM | > 12.5 µM | < 0.0002 µM | – | – |
| CNc1cc(Nc2cc(F)ccc2F)nc2c(C(=O)NC3CC3)cnn12 [I-3] | < 50% | < 50% | < 0.1 µM | > 12.5 µM | < 0.0002 µM | – | – |
| CNc1cc(Nc2cccn(-c3ccc(N4CCOCC4)cn3)c2=O)nc2c(C(=O)NC3CCC3)cnn12 [I-163] | < 50% | < 50% | < 0.1 µM | > 2.5 µM | 0.0002 to 0.001 µM | – | – |
| CNc1cc(Nc2cccn([C@@H]3CCC[C@H](OC)C3)c2=O)nc2c(C(=O)N[C@@H]3C[C@@H]3F)cnn12 [I-840] | – | – | < 0.1 µM | > 50 µM | < 0.0002 µM | < 50% | < 50% |
| CNc1cc(Nc2cccn(-c3cnc(C)o3)c2=O)nc2c(C(=O)N[C@H]3C[C@H]3F)cnn12 [I-718] | < 50% | < 50% | < 0.1 µM | > 12.5 µM | < 0.0002 µM | – | – |
| CNc1cc(Nc2cccn(-c3ccc(N4CCOCC4)cc3)c2=O)nc2c(C(=O)N[C@H]3C[C@H]3F)cnn12 [I-135] | < 50% | < 50% | < 0.1 µM | > 2.5 µM | < 0.0002 µM | – | – |
| CNc1cc(Nc2cc(F)cnc2OC2CC2)nc2c(C(=O)NC3CCC3)cnn12 [I-276] | < 50% | < 50% | < 0.1 µM | > 50 µM | < 0.0002 µM | – | – |
| [2H]C([2H])([2H])Oc1ncccc1Nc1cc(NC)n2ncc(C(=O)N[C@H]3CC[C@@H]3O)c2n1 [I-373] | < 50% | < 50% | < 0.1 µM | > 50 µM | < 0.0002 µM | – | – |
| CNc1cc(Nc2cccn(-c3cncc(C)c3)c2=O)nc2c(C(=O)NC3CCC3)cnn12 [I-303] | < 50% | < 50% | < 0.1 µM | > 50 µM | < 0.0002 µM | – | – |
| CNc1cc(Nc2cccnc2OC)nc2c(C(=O)NC3CCC3O)cnn12 (stereo not drawn) [I-390, N-(2-hydroxycyclobutyl)-5-((2-methoxypyridin-3-yl)amino)-7-(methylamino) pyrazolo[1,5-a]pyrimidine-3-carboxamide] | < 50% | < 50% | < 0.1 µM | > 50 µM | < 0.0002 µM | – | – |
| CNc1cc(Nc2cc(Cl)cn(C3CCN(C)CC3)c2=O)nc2c(C(=O)N[C@@H]3CC[C@H]3O)cnn12 [I-930] | – | – | < 0.1 µM | > 50 µM | < 0.0002 µM | < 50% | < 50% |
| CNc1cc(-c2c[nH]c3c(C4CCOCC4)cc(Cl)cc23)nc2c(C(N)=O)cnn12 [I-190] | < 50% | < 50% | < 0.1 µM | > 12.5 µM | < 0.0002 µM | – | – |
| CNc1cc(Nc2cc(F)cnc2OC2CC2)nc2c(C(=O)N[C@H]3C[C@H]3F)cnn12 [I-275] | < 50% | < 50% | < 0.1 µM | > 50 µM | < 0.0002 µM | – | – |
| CNc1cc(Nc2cccn(-c3ccn(C)n3)c2=O)nc2c(C(=O)NC3CCC3)cnn12 [I-139] | < 50% | < 50% | < 0.1 µM | > 50 µM | < 0.0002 µM | – | – |
| CNc1cc(Nc2cc(F)cn(-c3cc(C)n(C)n3)c2=O)nc2c(C(=O)NC3CC3)cnn12 [I-384] | < 50% | < 50% | < 0.1 µM | > 0.3 µM | < 0.0002 µM | – | – |
| CNc1cc(Nc2cccn(-c3ncccc3F)c2=O)nc2c(C(=O)NCC(C)(C)CO)cnn12 [I-510] | < 50% | < 50% | < 0.1 µM | > 50 µM | < 0.0002 µM | – | – |
| CNc1cc(Nc2cccn(-c3ccc(F)cn3)c2=O)nc2c(C(=O)NC3CCC3)cnn12 [I-238] | < 50% | < 50% | < 0.1 µM | > 50 µM | < 0.0002 µM | – | – |
| CNc1cc(Nc2cccnc2OC2CC2)nc2c(C(=O)N[C@@H]3CC[C@H]3O)cnn12 (stereo in doubt) [I-366, 5-((2-cyclopropoxypyridin-3-yl)amino)-N-((1R,2R)-2-hydroxycyclobutyl)-7-(methylamino)pyrazolo[1,5-a]pyrimidine-3-carboxamide] | < 50% | < 50% | < 0.1 µM | > 50 µM | < 0.0002 µM | – | – |
| CNc1cc(Nc2cccn(-c3ncc(C)s3)c2=O)nc2c(C(=O)NC3CC3)cnn12 [I-261, N-cyclopropyl-7-(methylamino)-5-((1-(5-methylthiazol-2-yl)-2-oxo-1,2-dihydropyridin-3-yl)amino)pyrazolo[1,5-a]pyrimidine-3-carboxamide] | < 50% | < 50% | < 0.1 µM | > 2.5 µM | 0.0002 to 0.001 µM | – | – |
| CCONC(=O)c1cnn2c(NC)cc(Nc3cccnc3OC)nc12 [I-409, N-ethoxy-5-((2-methoxypyridin-3-yl)amino)-7-(methylamino)pyrazolo[1,5-a]pyrimidine-3-carboxamide] | < 50% | < 50% | < 0.1 µM | > 12.5 µM | < 0.0002 µM | – | – |
